According to US6610297B1, “Peptide immunogens for vaccination against and treatment of allergy” (Novartis AG, priority 1996, dated 2003):
Where no end group is shown, it is not given here.

Experiments:
BSW17 [1] = test: Recognition of phage-displayed peptides by BSW17 (phage display library screening); assay type: binding; parameters: key: + + +: +(++), +/− = intensity of recognition by BSW 17; +(++), +/− = intensity of recognition by BSW 17; +(++), +/− = intensity of recognition by BSW 17; + /−: +(++), +/− = intensity of recognition by BSW 17; details: phage-displayed circular peptides, group A
Protocol: Bacteriophage particles specifically recognized by BSW17 are identified by biopanning of phage libraries displaying linear or circular random peptides from 6 to 15 amino acid residues in length fused to phage peptides pIII and pVIII, respectively. For amplification of phage libraries, 2 ml of a liquid culture of E. coli XL-I blue grown in SB medium to OD600=1.0 are incubated with 10^10 phages for 15 minutes at room temperature. 10 ml of SB medium containing […] of tetracycline and 20 μg/ml of carbenicillin are added and 10 μl, 1 μl and 0.1 μl, respectively, are plated on LB plates containing 100 μg/ml of carbenicillin. The culture is incubated at 37° with vigorous shaking for one hour, then 100 ml of SB containing 10 μg/ml of tetracycline and 50 μg/ml of carbenicillin are added and incubation is continued for one hour. 10^12 cfu of VCS M13 helper phage are added. After 2 hours with vigorous shaking at 37°. kanamycin is added to a final concentration of 70 μg/ml and incubation continued overnight. After centrifugation at 4000 g and 4° for 20 minutes, supernatants are mixed with 38 ml of an ice-cold sterile filtered solution of 12% NaCl and 16% PEG 8000, cooled on ice for 30 minutes and centrifuged for 30 minutes at 10000 g at 4°. The phage pellet is solubilized in 2 ml of TBS containing 1.5% casein and stored at 4°. For biopanning, COSTAR® RIA plates (Costar 3690) are coated over-night at 4° with 20 μg/ml of BSW17 in 0.1 M carbonate buffer, pH 9.6, and thereafter blocked with TBS containing 1.5% casein. 2×10^11 cfu of phages are added and incubated at 37° for 2 hours, then washed ten times with PBS/0.1% Tween 20. The wells are rinsed with water and the bound phages eluted with a total of 200 μl of 0.1 M HCl, pH 2.2 for 10 minutes. Eluted phages are neutralized with 2 M Tris base and amplified as described above.
For the selection of positive clones 50 μl of a E. coli XL-I blue liquid culture grown in SB-medium to OD600=1.0 are incubated with 1 μl of a 10^−8 dilution of amplified phages after the 3rd round of panning for 15 minutes at room temperature, then plated on LB plates containing 100 μg/ml of carbenicillin and grown overnight. Colonies are randomly picked and plated on LB plates containing 100 μg/ml of carbenicillin. After 4 hours at 37°, nitrocellulose filters soaked with 10 mM of IPTG are put on top and incubation continued overnight at 32°. Filters are removed and incubated at 37° for 30 minutes in a CHCl3-atmosphere. […]
The nucleotide sequence of the DNA encoding these peptides was determined. […]

BSW17 [2] = test: ELISA: binding of mimotope-displaying phage particles to coated BSW17; details: FIG. 5; phage titer 10^9 cfu/ml; 10 μg coated antibody
Protocol: (§1) 10 μg of BSW17 and various monoclonal antibodies are coated to the wells of COSTAR® plates following standard ELISA procedures. After blocking with BSA, the wells are incubated with 100 μl of standard ELISA incubation buffer containing bacteriophage particles obtained from phage-infected bacterial culture supernatants with a phage titer of 10^9 cfu/ml. After washing, the plates are incubated with 5 μg of horseradish peroxidase (HRP)-coupled anti-M13 antiserum (Pharmacia, Uppsala, Sweden) in incubation buffer. All incubations are carried out at room temperature for 1 hour. After final washing, phage particles bound to the coated antibodies are visualized via the bound HRP-anti M13 serum by chromogenic substrate development following standard ELISA procedure. […] As negative non-antibody control, recombinant FcεRI α-chain and as positive control, wells coated with polyclonal anti-M13 antiserum are included.

[3] = test system: 8E7, 3G9, 5H10 (monoclonal anti-Cε3 antibodies) and 5H5/F8 (against human FcεRIα); test: ELISA: binding of mimotope-displaying phage particles to other coated monoclonal antibodies; details: FIG. 5; phage titer 10^9 cfu/ml; 10 μg coated antibody
Protocol: as §1

BSW17/IgE binding = test: Competition RIA: binding of 125I-labelled IgE to BSW17 in the presence of phage particles; parameters: species or system human; details: FIG. 6; for Inhibition of labelled IgE binding to BSW17, equal to non-labelled IgE concentration: 10^11 cfu/ml of phage particles, estimated from standard inhibition curve
Protocol: Bacterial cells are grown in SB containing 10 μg/ml of tetracycline and 50 μg/ml of carbenicillin to OD600=0.4, then VCS M13 helper phage is added and incubation continued for 2 hours at 37°. Then kanamycin is added to a final concentration of 70 μg/ml and incubation continued overnight. Phage particles are precipitated with polyethyleneglycol. Soft RIA plates are coated with 20 μg/ml of BSW17 in 0.1 M carbonate buffer pH 9.6 and then blocked with TBS containing 1.5% casein. Human IgE is ^125I-labelled by the chloramine-T method and 100000 cpm per well are used for binding to BSW17 coated to the RIA plates in the presence of increasing concentrations of non-labelled IgE (standard curve) or phage particles, respectively. All experiments are performed at room temperature and plates are washed 3 times with 0.9% NaCl+0.05% Tween 20, cut in pieces and each well was measured in a γ-counter for 1 minute.
Closed circles show a standard inhibition curve by unlabelled IgE to allow an estimation of inhibition of labeled IgE binding in the presence of 10^11 cfu/ml of phage particles. The inhibition achieved with the phage clones is equal to non-labelled IgE concentrations of 1 μg/ml and 1.7 μg/ml, respectively.

human IgE = test: Anti-IgE response in rabbits immunized with BSW17 mimotope displaying phage (dot ELISA of serum); assay type: in vivo; details: rabbit serum 1:200 after third boost
Sequence of human IgE (P01854 1-428 isoform P01854-1): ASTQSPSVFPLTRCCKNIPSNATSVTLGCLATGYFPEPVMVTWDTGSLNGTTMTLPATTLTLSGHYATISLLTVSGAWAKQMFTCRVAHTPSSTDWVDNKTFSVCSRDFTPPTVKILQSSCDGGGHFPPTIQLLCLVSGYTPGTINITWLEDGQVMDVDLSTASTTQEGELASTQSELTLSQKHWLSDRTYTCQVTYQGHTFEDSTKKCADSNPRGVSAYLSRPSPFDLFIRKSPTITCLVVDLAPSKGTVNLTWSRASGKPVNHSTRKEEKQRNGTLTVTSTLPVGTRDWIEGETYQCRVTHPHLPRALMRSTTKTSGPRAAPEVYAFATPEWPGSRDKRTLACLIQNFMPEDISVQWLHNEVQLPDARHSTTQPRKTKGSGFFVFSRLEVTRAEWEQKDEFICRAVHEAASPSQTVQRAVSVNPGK
Protocol: To test the feasibility of a BSW17 mimotope-based vaccine approach, rabbits are immunized with phage particles displaying BSW17 mimotope peptides and helper phage VCS M13 as control, respectively. 10^12 cfu of freshly prepared phage particles are dialyzed against PBS at 4°. 1 ml is emulsified with complete Freund's adjuvant for the first immunization, or with 1 ml incomplete Freund's adjuvant for boosting. Immunization is repeated subcutaneously every 14 days. After the third boost, 12 ml of blood are taken, clotted for 4 hours at room temperature in glass vials and centrifuged for 10 minutes at 2000 g. The supernatants are tested for the presence of anti-human IgE antibodies by ELISA. Human IgE from three different individuals (SUS11-IgE; PS-IgE; WT-IgE) is diluted in PBS at a concentration of 50 μg/ml and 1 μl aliquots are dotted onto nitrocellulose. Nitrocellulose is blocked in TBS containing 1.5% casein for 1 hour. Rabbit serum is diluted 1:200 in TBS containing 1.5% casein and incubated overnight. Washing is performed in TBS, TBS-0.05% Tween 20 and TBS for 10 minutes each. Developing goat anti-rabbit-HRP is 1:1.000 diluted in TBS containing 1.5% casein and incubated for 4 hours. Washing and staining is performed as described. […] However, in addition to a massive immune response to the bacteriophage pVIII coat protein, sera of rabbits immunized with BSW17 mimotope phages also contain strongly elevated levels of antibodies which specifically recognize human IgE: […]

BSW17/IgE interaction = test: Competition ELISA: inhibition of BSW17-HRP/IgE interaction by sera of immunized rabbits; assay type: in vivo, human; details: rabbit serum 1:50, BSW17-HRP 1:50000
Sequence of BSW17/IgE interaction (P01854 1-428 isoform P01854-1): as above
Protocol: After washing, mAb BSW17 labeled with horseradish peroxidase (BSW17-HRP) is added in a 1:50000 dilution in TBS containing 1.5% casein for 4 hours. Subsequent washing and staining is performed as described.

BSW17 [4] = test: ELISA: recognition of coated mimotope conjugates by BSW17; assay type: binding; details: FIGS. 8a, 8b, 9a, 9b
Protocol: Microtiter plate wells are coated with 1 μg each of SDS236, SDS237 or free KLH and incubated with increasing concentrations of BSW17. Bound antibody is detected with goat anti-mouse IgG-HRP (gamIgG-HRP). The data shown represents means of duplicates minus background binding to uncoated (BSA-blocked) wells.
FIG. 8b summarizes ELISA data obtained with various BSW17 mimotope conjugates coupled to the carrier protein using several chemical coupling procedures. Microtiter plate wells are coated with 5 μg each of the mimotope conjugates, or free KLH, and incubated with 10 μg of BSW17. Bound antibody is detected with gamIgG-HRP. The data shown represents means of duplicates minus background binding to uncoated (BSA-blocked) wells. In contrast to free KLH, each BSW17 mimotope conjugate is found to be recognized by BSW17.
In FIGS. 9a and 9b it is shown that BSW17 mimotopes coupled to KLH or BSA are specifically recognized by BSW17 and not by the non-related monoclonal antibodies 3G9 (anti-human Cε3) and 5H5/F8 (anti-human RIα). Again, microtiter plate wells are coated with 5 μg each of the mimotope conjugates shown and incubated with 10 μg of the corresponding monoclonal antibody. Bound antibody is detected with gamIgG-HRP. The data shown represents means of duplicates minus background binding to uncoated (BSA-blocked) wells.

human IgM = human IgM (Homo sapiens, UniProt P01871); test: Isotype specificity ELISA of sera of immunized rabbits: IgM; assay type: in vivo; details: FIG. 12; serum 1:50
Sequence of human IgM (P01871 1-433 limits assumed): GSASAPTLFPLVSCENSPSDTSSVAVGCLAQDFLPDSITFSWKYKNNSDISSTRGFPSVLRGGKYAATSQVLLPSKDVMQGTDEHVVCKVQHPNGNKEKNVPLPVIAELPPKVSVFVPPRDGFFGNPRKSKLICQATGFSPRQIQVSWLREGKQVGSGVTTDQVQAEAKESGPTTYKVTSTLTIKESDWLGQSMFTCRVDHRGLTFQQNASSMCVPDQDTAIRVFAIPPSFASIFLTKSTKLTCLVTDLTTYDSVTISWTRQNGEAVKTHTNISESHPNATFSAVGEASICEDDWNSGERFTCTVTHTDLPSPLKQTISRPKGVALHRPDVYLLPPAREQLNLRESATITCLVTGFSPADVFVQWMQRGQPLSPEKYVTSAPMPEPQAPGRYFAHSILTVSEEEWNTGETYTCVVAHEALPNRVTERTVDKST
Sequence of human IgM (P01591 23-159 partner): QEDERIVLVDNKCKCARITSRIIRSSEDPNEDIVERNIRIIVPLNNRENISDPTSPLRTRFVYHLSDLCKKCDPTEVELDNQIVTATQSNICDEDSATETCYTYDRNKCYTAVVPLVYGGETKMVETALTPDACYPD
Protocol: The isotype specificity of the anti-human IgE immune response in the immunized rabbits is monitored by ELISA: microtiter plate wells are each coated with 3 μg of human IgE (SUS-11), IgA, IgG, and IgM, respectively, and incubated with 100 μl of serum samples, diluted 1:50 with ELISA incubation buffer. Rabbit antibodies bound by the immobilized human antibodies are detected by incubation with goat garIgG-HRP. The measured OD405 values are corrected by the read-out obtained with 1:50 diluted pre-immune serum of each corresponding rabbit, diluted 1:50. The data given in FIG. 12 represents mean values of duplicate measurements.

human IgE (human) = human IgE (human) (UniProt P01854); test: cell-based or functional assay
Sequence of human IgE (human) (P01854 other isoform, or with tags, fused parts or gaps): as the sequence (P01854 1-428 isoform P01854-1) above

CINHRGYWVC (cysteine pairing not given here) [PhBSW.29-8]
intensity of recognition by BSW 17 (BSW17 [1]): + + + | Binding of phage particles to BSW17 (BSW17 [2]): very specifically bind to BSW17 | Binding of phage particles to other antibodies (8E7, 3G9, 5H10, 5H5/F8) [3]: to no other antibodies | Inhibition of the binding of BSW17 to IgE (in words) (BSW17/IgE binding): inhibit the binding of BSW17 to IgE | Inhibition of labelled IgE binding to BSW17, equal to non-labelled IgE concentration (BSW17/IgE binding): 1.7 µg/mL | Recognition of IgE (relative OD) PS-IgE (human IgE): 9.0 ± 0.4 relative OD | Recognition of IgE (relative OD) SUS11-IgE (human IgE): 16.5 ± 0.7 relative OD | Recognition of IgE (relative OD) WT-IgE (human IgE): 25.0 ± 1.0 relative OD | Recognition of different IgE (% inhibition) PS-IgE (BSW17/IgE interaction): 48% | Recognition of different IgE (% inhibition) SUS11-IgE (BSW17/IgE interaction): 52% | Recognition of different IgE (% inhibition) WT-IgE (BSW17/IgE interaction): 65% | Recognition of different IgE (% inhibition) Zavasal-IgE (BSW17/IgE interaction): 47%

CRRHNYGFWVC (cysteine pairing not given here) [PhBSW.6-9]
intensity of recognition by BSW 17 (BSW17 [1]): ++ | Binding of phage particles to BSW17 (BSW17 [2]): very specifically bind to BSW17 | Binding of phage particles to other antibodies (8E7, 3G9, 5H10, 5H5/F8) [3]: to no other antibodies | Inhibition of the binding of BSW17 to IgE (in words) (BSW17/IgE binding): inhibit the binding of BSW17 to IgE | Inhibition of labelled IgE binding to BSW17, equal to non-labelled IgE concentration (BSW17/IgE binding): 1 µg/mL | Recognition of IgE (relative OD) PS-IgE (human IgE): 8.0 ± 0.6 relative OD | Recognition of IgE (relative OD) SUS11-IgE (human IgE): 5.0 ± 0.2 relative OD | Recognition of IgE (relative OD) WT-IgE (human IgE): 21.0 ± 1.0 relative OD | Recognition of different IgE (% inhibition) PS-IgE (BSW17/IgE interaction): 63% | Recognition of different IgE (% inhibition) SUS11-IgE (BSW17/IgE interaction): 34% | Recognition of different IgE (% inhibition) WT-IgE (BSW17/IgE interaction): 65% | Recognition of different IgE (% inhibition) Zavasal-IgE (BSW17/IgE interaction): 51%

CTRLHTGYWVC (cysteine pairing not given here) [Seq.id.no. 20]
intensity of recognition by BSW 17 (BSW17 [1]): +

Cys Thr Leu Ser Val Phe Gly Tyr Trp Val Cys (CTLSVFGYWVC; cysteine pairing not given here; also: circular) [Seq.id.no. 21]
intensity of recognition by BSW 17 (BSW17 [1]): + /−

cyclic GEFCINHRGYWVCGDPA-KLH [SDS236]
Recognition of conjugate by BSW17 (BSW17 [4]): recognized by BSW17 in a dose-dependent manner

cyclic GEFCRRHNYGFWVCGDPA-KLH [SDS214]
Recognition of human IgM by serum of immunized rabbit (human IgM): partial recognition of human IgM

keyhole limpet hemocyanin [KLH]
Recognition of conjugate by BSW17 (BSW17 [4]): no binding

linear KTKGSGFFVF-KLH [SDS237]
Recognition of conjugate by BSW17 (BSW17 [4]): recognized by BSW17 in a dose-dependent manner

monoclonal antibody BSW17
Specific histamine release (%), A: during sensitization with IgE and BSW17; Experiment 1 (human IgE (human)): 3.6% | Specific histamine release (%), A: during sensitization with IgE and BSW17; Experiment 2 (human IgE (human)): 3% | Specific histamine release (%), A: during sensitization with IgE and BSW17; Experiment 3 (human IgE (human)): 4.4% | Specific histamine release (%), B: after triggering with Le27; cells sensitized with IgE and BSW17; Experiment 1 (human IgE (human)): 3.1% | Specific histamine release (%), B: after triggering with Le27; cells sensitized with IgE and BSW17; Experiment 2 (human IgE (human)): 1.5% | Specific histamine release (%), B: after triggering with Le27; cells sensitized with IgE and BSW17; Experiment 3 (human IgE (human)): 0.9%
